Reference: patent US9265189B2, “Method for reducing damage by harmful organisms in corn cultivation” (SUMITOMO CHEMICAL COMPANY, LIMITED, priority 2012, dated 2016)

How the values were obtained:
Format in all cases: in vivo
[1] = system: Agriotes sordidus; test: Field test, corn plants damaged by Agriotes sordidus after in-furrow spray (Example 3); conditions: Example section 3: clothianidin 25 g/ha, in-furrow spray of Dantop 50WG aqueous suspension 100 L/ha, corn KUBRIK, 34 days after application; non-treatment section 34.6
Experimental: A cultivated land was ditched at intervals of 75 cm to a depth of 3 cm from the soil surface, and the furrow was seeded with corn (Zea Mays, variety name: KUBRIK; hybrid variety) at intervals of 17 cm. A seeding density of corn was 78000 seeds/ha. Then, the furrow was spray-treated with an aqueous suspension of a clothianidin water dispersible granule (using a 50% water dispersible granule, trade name: Dantop 50WG, manufactured by Philagro) at 100 L/ha so that the application amount of clothianidin was 25 g/ha, and then a soil on the side of the furrow was gathered together to close the furrow. This was defined as an example section 3. For comparison, a non-treatment section, which was seeded with corn without application of a clothianidin water dispersible granule, was provided. In any section, four places were arranged by a randomized block method, with one place having an area of 54 m^2 (18 m×3 m). 34 days after application of the clothianidin water dispersible granule, the number of plants of corn damaged by Agriotes sordidus in each of the example section 3 and the non-treatment section was investigated, a damage plant rate was calculated in accordance with the following equation, and then an average damage plants rate of the four investigation sections was determined. Damage plant rate(%)=[(number of plants of corn damaged)/(number of plants of corn seeded)]×100

[2] = system: Diabrotica virgifera virgifera and Agriotes lineatus; test: Field test, corn lodged due to damage by Diabrotica virgifera virgifera and Agriotes lineatus (Example 5); conditions: Example section 5: clothianidin 80 g/ha, in-furrow spray of Dantop 50WG 125 L/ha, corn DKC 5143 seed treated with Maxim XL, MaisTer pre-treatment, 155 days after application; non-treatment section 36
Text: A chemical fertilizer (N:P:K=15:15:15) was applied to the soil surface of a cultivated land at 300 kg/ha, and the cultivated land was then plowed. In order to prevent generation of weeds, 28 days after fertilization, the whole cultivated land was spraying-treated with a mixed agent (using 610 g/kg water dispersible granule, trade name: […], manufactured by Bayer CropScience) of foramsulfuron and an iodosulfuron-methyl-sodium salt, each of which being a herbicide, and a safener, isoxadifen-ethyl, at 0.15 L/ha in terms of an application amount of the preparation. 3 days after application of the preparation, using a pneumatic seeder (disk furrow opener) equipped with a power sprayer, a cultivated land was ditched at intervals of 75 cm to a depth of 5 cm from the soil surface, and the furrow was seeded with corn (variety name: DKC 5143; hybrid variety, manufactured by Monsanto). […] 155 days after application of the clothianidin water dispersible granule, the number of plants of corn lodged due to damage by Diabrotica virgifera virgifera and Agriotes lineatus in the furrows of the example section 5 and the non-treatment section, for which the number of plants of corn germinated was investigated, was investigated, a lodge rate was calculated in accordance with the following equation, and then an average lodge rate for the four investigation sections was determined. […]

[3] = system: Diabrotica virgifera virgifera and Agriotes lineatus; test: Field test, lodge rate, clothianidin in-furrow, seed treated with thiuram and cyprosulfamide (Example 9); conditions: clothianidin 50 g/ha in-furrow spray 125 L/ha, 165 days after application, example in present tense
Text: A chemical fertilizer (N:P:K=15:15:15) is applied to the soil surface of a cultivated land at 300 kg/ha, and the cultivated land is then plowed. 7 days after fertilization, for suppressing generation of weeds, the soil surface of the whole cultivated land is spray-treated with a mixed liquid containing thiencarbazone-methyl and isoxaflutole, each of which being a herbicide, at 150 L/ha so that the application amounts of thiencarbazone-methyl and isoxaflutole are 9.2 g/ha and 23 g/ha. 21 days after fertilization, using a pneumatic seeder (disk furrow opener) equipped with a power sprayer, a cultivated land is ditched at intervals of 75 cm to a depth of 5 cm from the soil surface, and the furrow is seeded with corn (Zea Mays; hybrid variety). The furrow is seeded at intervals of 20 cm using, as a seed of corn, one treated with thiuram and cyprosulfamide. A seeding density of corn is 70000 seeds/ha. […] 165 days after application of the aqueous suspension of clothianidin, the number of plants of corn lodged due to damage by Diabrotica virgifera virgifera and Agriotes lineatus in the furrows of the treatment section and the non-treatment section, for which the number of plants of corn germinated is investigated, is investigated, a lodge rate is calculated in accordance with the following equation, and then an average lodge rate for the four investigation sections is determined.

CN/C(=N\[N+](=O)[O-])NCc1cnc(Cl)s1 [clothianidin]
Damage plant rate (%) [1]: 1.8%
Lodge rate (%) [2]: 0%
Lodge rate compared to non-treatment section [3]: low lodge rate as compared to the non-treatment section
